Measured values as given in US4322416A, “10-Alkynyl steroids” (Merrell Dow Pharmaceuticals Inc., priority 1981, dated 1982).
Entries after “also recorded” stand apart in the source; their conditions may differ.

Key:
aromatase = conditions: microsomal enzyme preparations from human placenta; cited from earlier work
[1] = test system: estrogen production required for ovulation; conditions: rats; cited from earlier work
[2] = test system: implantation in mated rats; conditions: cited from earlier work
[3] = target: T1, aromatase (microsomal fraction from human placenta) (Homo sapiens, UniProt P11511); assay: biochemical; type: biochemical
T1 construct: microsomal fraction isolated from human placenta; from tissue; host or cells: human placenta, microsomal fraction
T1 sequence (P11511 1-503): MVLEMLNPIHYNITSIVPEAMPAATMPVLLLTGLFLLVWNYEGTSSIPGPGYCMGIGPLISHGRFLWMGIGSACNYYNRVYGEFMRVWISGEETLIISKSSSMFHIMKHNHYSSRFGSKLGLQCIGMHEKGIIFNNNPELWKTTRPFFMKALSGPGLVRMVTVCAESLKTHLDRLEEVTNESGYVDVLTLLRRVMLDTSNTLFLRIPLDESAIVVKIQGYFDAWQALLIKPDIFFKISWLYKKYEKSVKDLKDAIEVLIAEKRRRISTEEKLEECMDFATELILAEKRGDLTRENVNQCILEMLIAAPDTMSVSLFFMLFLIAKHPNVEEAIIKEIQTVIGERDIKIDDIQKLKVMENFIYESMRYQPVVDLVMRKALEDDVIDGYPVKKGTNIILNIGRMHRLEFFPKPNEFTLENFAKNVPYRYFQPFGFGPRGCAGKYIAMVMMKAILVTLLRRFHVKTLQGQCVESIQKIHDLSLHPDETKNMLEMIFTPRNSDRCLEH
Description: (§1) The aromatase inhibitory action of the compounds of the invention can be determined using a radioenzymatic assay. An aromatase enzyme preparation from the microsomal fraction isolated from human placenta is employed.
Assay buffer contains 100 mM KCl, 10 mM KH2 PO4, 10 mM dithiothreitol and 1 mM EDTA at pH 8.0. […] Aromatase requires NADPH as a cofactor, therefore a generating system is included which uses 0.5 mM NADP^+, 2.5 mM glucose-6-phosphate, and 1.0 unit/ml of glucose-6-phosphate dehydrogenase in assay buffer. The enzyme reaction is initiated by the addition of 700 μl of aromatase preparation, usually 50 μg microsomal protein per ml of assay buffer. These preparations are mixed using a vortex mixer and incubated for 30 minutes at 37° C. with 95% O2 :5% CO2 gas phase in a Dubinoff shaking incubator.
The enzymatic reaction is terminated by the addition of CHCl3. After vortexing 20 seconds, aqueous/organic emulsions are dispersed and phase separation achieved following centrifugation at 600×g for 10 minutes. Duplicate 500 μl samples of the upper aqueous phase of each incubation sample are added to 10×75 mm culture tubes. […] The radioactivity of ^3 H2 O resulting from liberated 1β and 2β tritium atoms during the enzymatic reaction is determined by counting for 10 minutes in a liquid scintillation counter. […]

[4] = target: T2, aromatase (aromatase preparation; microsomal protein) (Homo sapiens, UniProt P11511); assay: biochemical
T2 sequence (P11511 1-503): T1 sequence (P11511 1-503)
Description: as §1
In this assay, the inhibitor is preincubated with enzyme prior to assaying for enzyme activity in the presence of high substrate levels.
In the time-dependent assay, an amount of the enzyme inhibitor in 100 μl of the assay buffer described above which will provide assay concentrations which are approximately one and ten times the IC50 values are added to 35 ml centrifuge tubes containing 600 μl of the NADPH generating system described above. The preincubation is started by the addition of 700 μl of aromatase preparation, usually 500-800 μg of microsomal protein per ml of assay buffer. These preparations are mixed using a vortex mixer and incubated for 0, 10, 20 or 40 minutes at 25° C. […] Following vortexing, the enzyme incubation is continued for 10 minutes before being terminated by the addition of chloroform. The amount of radioactivity in the aqueous fraction is determined by scintillation procedures. […] Therefore, the present enzyme inhibition is expressed as a percentage: [100 percent minus percent enzyme activity of inhibitor].
Compounds which show time-dependent inhibition are then assayed to establish the inhibition constant, Ki, which is the apparent dissociation constant for the enzyme-inhibitor complex. This determination requires measurements at initial velocities of enzyme reaction. […] The enzyme half-life (t1/2) at these different inhibitor concentrations ([In]) is used to determine the Ki by the linear regression equation of the t1/2 vs. 1/[In]. The Ki is equivalent to the inhibitor concentration when t1/2 is equal to zero.

**Q.** Which “identified as aromatase inhibitor” value (aromatase) does the source give for `C[C@]12CCC(=O)C(O)=C1CC[C@@H]1[C@@H]2CC[C@]2(C)C(=O)CC[C@@H]12` [4-hydroxy-androst-4-ene-3,17-dione] here?
**A.** identified as aromatase inhibitors

**Q.** What does the source list for `CC(=O)OC1=C2CC[C@@H]3[C@H](CC[C@]4(C)C(=O)CC[C@@H]34)[C@@]2(C)CCC1=O` [4-acetoxy-androst-4-ene-3,17-dione]?
**A.** identified as aromatase inhibitor (aromatase): identified as aromatase inhibitors; preventing estrogen production required for ovulation [1]: effective in preventing estrogen production required for ovulation in rats

**Q.** For `C[C@]12C=CC(=O)C=C1C=C[C@@H]1[C@@H]2CC[C@]2(C)C(=O)CC[C@@H]12` [Androsta-1,4,6-triene-3,17-dione], which preventing implantation [2] is on record?
**A.** effective in preventing implantation in mated rats

**Q.** And the “identified as aromatase inhibitor” value (aromatase)?
**A.** identified as aromatase inhibitors

**Q.** Which IC50 [3] does the source give for `C#CC[C@]12CCC(=O)C=C1CC[C@@H]1[C@@H]2CC[C@]2(C)C(=O)CC[C@@H]12` [10-(2-propynyl)estr-4-ene-3,17-dione] here?
**A.** 4.2 nM

**Q.** What about the “enzyme affinity compared with known inhibitors” value [3] of the same compound?
**A.** greater enzyme affinity than other known inhibitors; also recorded: superior to known aromatase inhibitors

**Q.** What about the Ki [4] of the same compound?
**A.** 8.9 nM

**Q.** And the “affinity for the enzyme site relative to that of the natural substrate testosterone” value ([4]; Ki vs. Km of testosterone)?
**A.** five times greater

**Q.** What about the “irreversible binding to / irreversible inhibition of aromatase” value ([4]; time-dependent inhibition, in words) of the same compound?
**A.** irreversibly bound to the enzyme
